Series [1] can be described thus: Acetaminophen formulation blends tested in different volumes of water and containers. Format: physicochemical. The following applies: conclusion of Example 13. Here is the method:
Blends of the above components were tested in three different volumes df water: 20 ml, 40 ml and 80 ml in different containers.
In the case of the second formulation a single volume (20 ml) in two different containers were investigated, namely a small bottle and a sampling container with cap.

Series [2] is described as follows: Ibuprofen formulation test: behaviour in water. It counts as physicochemical. The following applies: conclusion of Example 14. Here is the method:
Two volumes of water were tested, namely 20 ml and 40 ml in two different containers, namely a small bottle and a beaker. One volume of water was tested, namely 20 ml, and a single container, namely a small bottle. In the case of the above two formulations, the behaviour of ibuprofen in water was tested and the generation of bubbles was optimised by increasing the quantity of citric acid, sodium bicarbonate and potassium hydrogen carbonate.

From US20070193894A1, “Container for constituting a formulation in liquid form” (IDD-EAL MANUFACTURING COMPANY LIMITED, priority 2004, published 2007) come the findings set out here.

Consider `CC(=O)Nc1ccc(O)cc1` [acetaminophen, Acetaminophen], for which, in series [1], the “remaining in suspension in water” value is reported as “does not remain in suspension” and the stability in water result is recorded as “not stable in water”.
Consider `CC(C)Cc1ccc(C(C)C(=O)O)cc1` (stereo not drawn) [ibuprofen, 4-Isobutyl-Alpha-Methylphenylacetic Acid (Ibuprofen)], for which, in series [2], the “remaining in suspension in water” value is “does not remain in suspension” and the stability in water result is “not stable in water”.
